{"source": "patent US20210395239A1", "about": "(Hoffmann-La Roche Inc., priority 2018, published 2021)"}
{"target": "T1, human TLR8 (Homo sapiens, UniProt Q9NR97)", "T1 construct": "host or cells: HEK293 (HEK-Blue hTLR8)", "T1 sequence (Q9NR97 27-1041)": "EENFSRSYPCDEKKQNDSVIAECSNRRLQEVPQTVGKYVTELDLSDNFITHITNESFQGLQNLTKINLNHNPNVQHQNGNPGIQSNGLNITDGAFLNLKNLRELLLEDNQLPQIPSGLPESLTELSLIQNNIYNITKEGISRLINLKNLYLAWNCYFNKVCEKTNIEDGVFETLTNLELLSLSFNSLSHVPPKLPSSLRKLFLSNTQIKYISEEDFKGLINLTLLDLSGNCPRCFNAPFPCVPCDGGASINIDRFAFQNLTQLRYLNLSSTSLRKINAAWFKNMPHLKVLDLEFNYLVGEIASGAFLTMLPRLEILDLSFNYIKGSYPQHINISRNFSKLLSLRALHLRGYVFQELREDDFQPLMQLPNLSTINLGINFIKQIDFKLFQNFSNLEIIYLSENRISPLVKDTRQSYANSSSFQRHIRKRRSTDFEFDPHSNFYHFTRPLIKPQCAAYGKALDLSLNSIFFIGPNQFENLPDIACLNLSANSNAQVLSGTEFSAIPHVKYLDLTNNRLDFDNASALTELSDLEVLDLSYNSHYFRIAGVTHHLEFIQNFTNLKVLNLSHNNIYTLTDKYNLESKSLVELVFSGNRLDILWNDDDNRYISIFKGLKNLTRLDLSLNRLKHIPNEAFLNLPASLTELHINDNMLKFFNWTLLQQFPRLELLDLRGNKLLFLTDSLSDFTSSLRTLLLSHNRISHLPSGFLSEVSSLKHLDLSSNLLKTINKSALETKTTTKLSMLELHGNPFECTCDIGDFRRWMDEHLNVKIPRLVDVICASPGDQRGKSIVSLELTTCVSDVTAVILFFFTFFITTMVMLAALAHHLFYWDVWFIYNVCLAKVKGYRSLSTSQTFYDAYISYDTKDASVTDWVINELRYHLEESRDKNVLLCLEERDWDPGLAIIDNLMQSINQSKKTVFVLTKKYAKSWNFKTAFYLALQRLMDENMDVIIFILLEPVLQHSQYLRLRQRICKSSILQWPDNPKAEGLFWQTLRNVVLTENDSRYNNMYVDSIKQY", "assay": "HEK293-Blue-hTLR-8 cells assay (SEAP reporter, R848 stimulation)", "assay_type": "cell-based", "settings": "HEK293-Blue-hTLR8 cells, R848, 20 hrs; read-out: HEK/hTLR8 IC50", "summary_of_the_method": "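Antagonism read as reduced R848-induced SEAP reporter secretion, detected by QUANTI-Blue absorbance at 620–655 nm after 2 h. Reporter cells were exposed to compound dilutions in DMEM/10% FBS, 1% DMSO, for 20 h at 37° C.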", "units": {"IC50": "nM"}}
{"smiles": "C[C@@H]1CN(c2ccc(C#N)c3ncccc23)C[C@H](CN2CCN(c3cccc(N[C@H]4CNC[C@@H]4F)n3)CC2)O1", "note": "[Example 35, 5-[(2S,6R)-2-[[4-[6-[[(3S,4S)-4-fluoropyrrolidin-3-yl]amino]-2-pyridyl]piperazin-1-yl]methyl]-6-methyl-morpholin-4-yl]quinoline-8-carbonitrile]", "IC50": 33}
{"smiles": "C[C@@H]1CN(c2ccc(C#N)c3ncccc23)C[C@H](CN2CCN(c3cccc(N4CCC(N)CC4)n3)CC2)O1", "note": "[Example 36, 5-[(2S,6R)-2-[[4-[6-(4-amino-1-piperidyl)-2-pyridyl]piperazin-1-yl]methyl]-6-methyl-morpholin-4-yl]quinoline-8-carbonitrile]", "IC50": 11}
{"smiles": "C[C@@H]1CN(c2ccc(C#N)c3ncccc23)C[C@H](CN2CCN(c3cccc(N[C@H]4CNC[C@H]4F)n3)CC2)O1", "note": "[Example 37, 5-[(2S,6R)-2-[[4-[6-[[(3S,4R)-4-fluoropyrrolidin-3-yl]amino]-2-pyridyl]piperazin-1-yl]methyl]-6-methyl-morpholin-4-yl]quinoline-8-carbonitrile]", "IC50": 30}
{"smiles": "C[C@@H]1CN(c2ccc(C#N)c3ncccc23)C[C@H](CN2CCN(c3cccc(N4CC(N)C(F)C4)n3)CC2)O1", "note": "(stereo partly drawn) [Example 40, 5-[(2S,6R)-2-[[4-[6-(3-amino-4-fluoro-pyrrolidin-1-yl)-2-pyridyl]piperazin-1-yl]methyl]-6-methyl-morpholin-4-yl]quinoline-8-carbonitrile]", "IC50": 17}
{"smiles": "C[C@@H]1CN(c2ccc(C#N)c3ncccc23)C[C@H](CN2CCN(c3cccc(N4CCNCC(O)C4)n3)CC2)O1", "note": "(stereo partly drawn) [Example 41, 5-[(2S,6R)-2-[[4-[6-(6-hydroxy-1,4-diazepan-1-yl)-2-pyridyl]piperazin-1-yl]methyl]-6-methyl-morpholin-4-yl]quinoline-8-carbonitrile]", "IC50": 32}
{"smiles": "CO[C@H]1CN(c2cccc(N3CCN(C[C@H]4CN(c5ccc(C#N)c6ncccc56)C[C@@H](C)O4)CC3)n2)C[C@H]1N", "note": "[Example 42, 5-[(2S,6R)-2-[[4-[6-[(3R,4S)-3-amino-4-methoxy-pyrrolidin-1-yl]-2-pyridyl]piperazin-1-yl]methyl]-6-methyl-morpholin-4-yl]quinoline-8-carbonitrile]", "IC50": 13}
{"smiles": "C[C@@H]1CN(c2ccc(C#N)c3ncccc23)C[C@H](CN2CCN(c3ccc(N4CC(N)C(F)C4)nc3)CC2)O1", "note": "(stereo partly drawn) [Example 44, 5-[(2S,6R)-2-[[4-[6-(3-amino-4-fluoro-pyrrolidin-1-yl)-3-pyridyl]piperazin-1-yl]methyl]-6-methyl-morpholin-4-yl]quinoline-8-carbonitrile]", "IC50": 10}
{"smiles": "Cc1nc(N2CCNCC2)nc(N2CCN(C[C@H]3CN(c4ccc(C#N)c5ncccc45)C[C@@H](C)O3)CC2)c1C", "note": "[Example 46, 5-[(2S,6R)-2-[[4-(5,6-dimethyl-2-piperazin-1-yl-pyrimidin-4-yl)piperazin-1-yl]methyl]-6-methyl-morpholin-4-yl]quinoline-8-carbonitrile]", "IC50": 9}
{"smiles": "Cc1cc(N2CCN(C[C@H]3CN(c4ccc(C#N)c5ncccc45)C[C@@H](C)O3)CC2)nc(N2CCNCC2)n1", "note": "[Example 47, 5-[(2R,6S)-2-methyl-6-[[4-(6-methyl-2-piperazin-1-yl-pyrimidin-4-yl)piperazin-1-yl]methyl]morpholin-4-yl]quinoline-8-carbonitrile]", "IC50": 3}
{"smiles": "COc1cnc(N2CCNCC2)nc1N1CCN(C[C@H]2CN(c3ccc(C#N)c4ncccc34)C[C@@H](C)O2)CC1", "note": "[Example 48, 5-[(2S,6R)-2-[[4-(5-methoxy-2-piperazin-1-yl-pyrimidin-4-yl)piperazin-1-yl]methyl]-6-methyl-morpholin-4-yl]quinoline-8-carbonitrile]", "IC50": 4}
{"smiles": "C[C@@H]1CN(c2ccc(C#N)c3ncccc23)C[C@H](CN2CCN(c3nc(N4CCNCC4)nc4ccccc34)CC2)O1", "note": "[Example 49, 5-[(2R,6S)-2-methyl-6-[[4-(2-piperazin-1-ylquinazolin-4-yl)piperazin-1-yl]methyl]morpholin-4-yl]quinoline-8-carbonitrile]", "IC50": 10}
{"smiles": "C[C@@H]1CN(c2ccc(C#N)c3ncccc23)C[C@H](CN2CCN(c3nc(N4CCNCC4)ncc3C#N)CC2)O1", "note": "[Example 50, 5-[(2S,6R)-2-[[4-(5-cyano-2-piperazin-1-yl-pyrimidin-4-yl)piperazin-1-yl]methyl]-6-methyl-morpholin-4-yl]quinoline-8-carbonitrile]", "IC50": 3}
{"smiles": "C[C@@H]1CN(c2ccc(C#N)c3ncccc23)C[C@H](CN2CCN(c3ncc(C#N)c(N4CCNCC4)n3)CC2)O1", "note": "[Example 51, 5-[(2S,6R)-2-[[4-(5-cyano-4-piperazin-1-yl-pyrimidin-2-yl)piperazin-1-yl]methyl]-6-methyl-morpholin-4-yl]quinoline-8-carbonitrile]", "IC50": 3}
{"smiles": "Cc1cc(N2CCN(C[C@H]3CN(c4ccc(C#N)c5ncccc45)C[C@@H](C)O3)CC2)nc(N2C[C@@H](N)[C@@H](F)C2)n1", "note": "[Example 55, 5-[(2S,6R)-2-[[4-[2-[(3R,4S)-3-amino-4-fluoro-pyrrolidin-1-yl]-6-methyl-pyrimidin-4-yl]piperazin-1-yl]methyl]-6-methyl-morpholin-4-yl]quinoline-8-carbonitrile]", "IC50": 3}
{"smiles": "Cc1cc(N2CCN(C[C@H]3CN(c4ccc(C#N)c5ncccc45)C[C@@H](C)O3)CC2)nc(N2CCOCC(N)C2)n1", "note": "(stereo partly drawn) [Example 56, 5-[(2S,6R)-2-[[4-[2-(6-amino-1,4-oxazepan-4-yl)-6-methyl-pyrimidin-4-yl]piperazin-1-yl]methyl]-6-methyl-morpholin-4-yl]quinoline-8-carbonitrile]", "IC50": 6}
{"smiles": "Cc1cc(N2CCN(C[C@H]3CN(c4ccc(C#N)c5ncccc45)C[C@@H](C)O3)CC2)nc(NC2CNCC2C#N)n1", "note": "(stereo partly drawn) [Example 57, 5-[(2S,6R)-2-[[4-[2-[(4-cyanopyrrolidin-3-yl)amino]-6-methyl-pyrimidin-4-yl]piperazin-1-yl]methyl]-6-methyl-morpholin-4-yl]quinoline-8-carbonitrile]", "IC50": 4}
{"smiles": "Cc1cc(N2CCN(C[C@H]3CN(c4ccc(C#N)c5ncccc45)C[C@@H](C)O3)CC2)nc(N2C[C@@H]3COC[C@@H](C2)N3)n1", "note": "[Example 58, 5-[(2R,6S)-2-methyl-6-[[4-[6-methyl-2-[(1R,5R)-3-oxa-7,9-diazabicyclo[3.3.1]nonan-7-yl]pyrimidin-4-yl]piperazin-1-yl]methyl]morpholin-4-yl]quinoline-8-carbonitrile]", "IC50": 4}
{"smiles": "CO[C@H]1CN(c2nc(C)cc(N3CCN(C[C@H]4CN(c5ccc(C#N)c6ncccc56)C[C@@H](C)O4)CC3)n2)C[C@H]1N", "note": "[Example 60, 5-[(2R,6S)-2-methyl-6-[[4-[6-methyl-2-[cis-3-amino-4-methoxy-pyrrolidin-1-yl]pyrimidin-4-yl]piperazin-1-yl]methyl]morpholin-4-yl]quinoline-8-carbonitrile]", "IC50": 3}
{"smiles": "Cc1cc(N2CCN(C[C@H]3CN(c4ccc(C#N)c5ncccc45)C[C@@H](C)O3)CC2)nc(N2CC3(CNCCO3)C2)n1", "note": "[Example 61, 5-[(2R,6S)-2-methyl-6-[[4-[6-methyl-2-(5-oxa-2,8-diazaspiro[3.5]nonan-2-yl)pyrimidin-4-yl]piperazin-1-yl]methyl]morpholin-4-yl]quinoline-8-carbonitrile]", "IC50": 3}
{"smiles": "C[C@@H]1CN(c2ccc(C#N)c3ncccc23)C[C@H](CN2CCN(c3cccc(C4CNCCO4)c3)CC2)O1", "note": "(stereo partly drawn) [Example 62, 5-[(2R,6S)-2-methyl-6-[[4-(3-morpholin-2-ylphenyl)piperazin-1-yl]methyl]-morpholin-4-yl]quinoline-8-carbonitrile]", "IC50": 14}
{"smiles": "Cc1cc(N2CCN(C[C@H]3CN(c4ccc(C#N)c5ncccc45)C[C@@H](C)O3)CC2)nc(N2CC(N)C(F)(F)C2)n1", "note": "(stereo partly drawn) [Example 63, 5-[(2S,6R)-2-[[4-[2-(4-amino-3,3-difluoro-pyrrolidin-1-yl)-6-methyl-pyrimidin-4-yl]piperazin-1-yl]methyl]-6-methyl-morpholin-4-yl]quinoline-8-carbonitrile]", "IC50": 13}
{"smiles": "Cc1cc(N2CCN(C[C@H]3CN(c4ccc(C#N)c5nccnc45)C[C@@H](C)O3)CC2)nc(N2CCNCC2)n1", "note": "[Example 64, 8-[(2R,6S)-2-methyl-6-[[4-(6-methyl-2-piperazin-1-yl-pyrimidin-4-yl)piperazin-1-yl]methyl]morpholin-4-yl]quinoxaline-5-carbonitrile]", "IC50": 2}
